Measured values reported in US9574176B2 (priority 2012, dated 2017).

Tests used:
[1] = system: human neural progenitor cells (NHNP); format: cell-based
[2] = system: WT mouse-derived neural stem cells; format: cell-based

ω-conotoxin GVIA
differentiation after passaging with inhibitor [1]: many cells differentiate into Tuj-1 (class III β-tubulin)-positive nerve cells and some cells differentiate into GFAP (grail fibrillary acidic protein)-positive astrocytes | differentiation after passaging with inhibitor [2]: differentiation into Tuj-1 (class III β-tubulin)-positive nerve cells and GFAP (grail fibrillary acidic protein)-positive astrocytes could be confirmed
